# Activity calls are given as the source filed them. Rule as the data show it, for most assays here: actives have a measured Kd and inactives only a lower limit.
# Legend:
# [1] = biological target: T1, Cysteine--tRNA ligase, cytoplasmic (Homo sapiens, UniProt P49589)
# T1 sequence (P49589 whole entry): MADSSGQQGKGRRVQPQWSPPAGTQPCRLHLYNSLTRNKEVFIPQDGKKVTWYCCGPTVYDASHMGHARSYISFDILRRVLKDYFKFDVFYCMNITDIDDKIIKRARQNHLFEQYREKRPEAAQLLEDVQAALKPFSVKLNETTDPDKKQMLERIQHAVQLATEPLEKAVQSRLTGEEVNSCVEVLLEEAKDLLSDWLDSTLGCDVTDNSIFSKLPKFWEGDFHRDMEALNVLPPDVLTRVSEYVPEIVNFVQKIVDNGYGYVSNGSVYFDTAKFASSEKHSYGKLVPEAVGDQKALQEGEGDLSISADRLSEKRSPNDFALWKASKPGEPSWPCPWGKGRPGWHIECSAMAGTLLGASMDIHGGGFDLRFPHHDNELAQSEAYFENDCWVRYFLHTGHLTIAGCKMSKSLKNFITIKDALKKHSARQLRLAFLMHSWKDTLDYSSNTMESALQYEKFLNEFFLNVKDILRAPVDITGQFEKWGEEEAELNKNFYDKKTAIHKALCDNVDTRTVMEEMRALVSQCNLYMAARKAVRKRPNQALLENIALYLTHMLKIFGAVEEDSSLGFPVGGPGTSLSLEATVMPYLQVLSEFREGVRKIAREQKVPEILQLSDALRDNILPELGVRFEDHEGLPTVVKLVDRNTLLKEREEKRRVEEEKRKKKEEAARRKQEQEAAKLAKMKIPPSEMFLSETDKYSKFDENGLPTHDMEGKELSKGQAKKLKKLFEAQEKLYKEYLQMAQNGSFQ
# [2] = biological target: Dual specificity tyrosine-phosphorylation-regulated kinase 1A (Homo sapiens, UniProt Q13627)
# [3] = biological target: T2, Mitogen-activated protein kinase kinase kinase kinase 2 (Homo sapiens, UniProt Q12851)
# T2 sequence (Q12851 whole entry): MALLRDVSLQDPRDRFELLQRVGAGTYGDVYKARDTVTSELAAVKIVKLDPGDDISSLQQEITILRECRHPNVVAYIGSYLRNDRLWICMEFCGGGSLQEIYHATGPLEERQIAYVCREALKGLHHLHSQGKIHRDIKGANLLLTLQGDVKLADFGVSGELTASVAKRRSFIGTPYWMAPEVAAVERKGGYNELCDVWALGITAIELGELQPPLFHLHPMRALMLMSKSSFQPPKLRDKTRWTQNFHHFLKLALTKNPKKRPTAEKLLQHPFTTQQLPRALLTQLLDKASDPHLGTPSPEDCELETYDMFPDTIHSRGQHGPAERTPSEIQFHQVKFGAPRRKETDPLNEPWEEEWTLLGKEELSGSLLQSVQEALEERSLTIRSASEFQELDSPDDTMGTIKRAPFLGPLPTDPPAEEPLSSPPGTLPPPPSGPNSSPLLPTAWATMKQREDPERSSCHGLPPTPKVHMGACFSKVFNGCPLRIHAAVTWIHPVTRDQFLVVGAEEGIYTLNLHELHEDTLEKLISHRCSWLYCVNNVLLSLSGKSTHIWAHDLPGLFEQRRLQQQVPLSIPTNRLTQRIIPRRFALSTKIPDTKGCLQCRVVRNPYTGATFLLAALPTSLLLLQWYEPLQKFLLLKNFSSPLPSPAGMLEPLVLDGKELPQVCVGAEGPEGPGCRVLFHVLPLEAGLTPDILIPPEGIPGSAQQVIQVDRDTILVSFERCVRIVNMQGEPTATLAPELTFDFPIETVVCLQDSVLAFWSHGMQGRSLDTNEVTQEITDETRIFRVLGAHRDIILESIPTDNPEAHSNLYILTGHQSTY
# [4] = biological target: 5'-AMP-activated protein kinase catalytic subunit alpha-1 (Homo sapiens, UniProt Q13131)
# Chain of 5'-AMP-activated protein kinase catalytic subunit alpha-1 (Q13131 whole entry): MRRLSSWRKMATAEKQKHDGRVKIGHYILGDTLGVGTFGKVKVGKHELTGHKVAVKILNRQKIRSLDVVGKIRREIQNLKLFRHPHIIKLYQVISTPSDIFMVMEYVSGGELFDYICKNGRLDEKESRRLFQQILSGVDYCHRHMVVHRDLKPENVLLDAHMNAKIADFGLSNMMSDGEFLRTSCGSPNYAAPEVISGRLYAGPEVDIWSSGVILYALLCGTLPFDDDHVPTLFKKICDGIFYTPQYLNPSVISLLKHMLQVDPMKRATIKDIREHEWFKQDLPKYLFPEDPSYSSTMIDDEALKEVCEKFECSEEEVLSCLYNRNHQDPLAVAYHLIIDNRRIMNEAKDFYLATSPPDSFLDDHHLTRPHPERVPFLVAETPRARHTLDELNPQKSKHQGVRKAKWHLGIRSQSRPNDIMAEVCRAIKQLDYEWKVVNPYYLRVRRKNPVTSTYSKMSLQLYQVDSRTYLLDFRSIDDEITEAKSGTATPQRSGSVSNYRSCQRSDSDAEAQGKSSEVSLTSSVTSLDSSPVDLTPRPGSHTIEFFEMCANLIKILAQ
# [5] = biological target: cAMP-dependent protein kinase catalytic subunit beta (Homo sapiens, UniProt P22694)
# TGF-beta receptor type-1 = biological target: T3, TGF-beta receptor type-1 (Homo sapiens, UniProt P36897)
# T3 sequence (P36897 whole entry): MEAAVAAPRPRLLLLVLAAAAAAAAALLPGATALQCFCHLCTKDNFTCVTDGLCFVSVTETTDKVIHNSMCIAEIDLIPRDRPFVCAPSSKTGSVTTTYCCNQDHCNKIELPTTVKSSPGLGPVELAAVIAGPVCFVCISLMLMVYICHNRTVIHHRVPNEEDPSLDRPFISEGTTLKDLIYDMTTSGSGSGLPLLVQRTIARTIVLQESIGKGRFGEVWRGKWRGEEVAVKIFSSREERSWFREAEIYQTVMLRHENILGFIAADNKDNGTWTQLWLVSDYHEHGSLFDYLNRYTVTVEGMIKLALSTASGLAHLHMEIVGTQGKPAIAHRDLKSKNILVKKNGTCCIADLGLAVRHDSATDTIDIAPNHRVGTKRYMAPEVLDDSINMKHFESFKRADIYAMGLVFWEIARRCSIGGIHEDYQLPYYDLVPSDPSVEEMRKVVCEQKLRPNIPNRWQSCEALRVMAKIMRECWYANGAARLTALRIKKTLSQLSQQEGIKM
# [6] = biological target: T4, Long-chain-fatty-acid--CoA ligase 5 (Homo sapiens, UniProt Q9ULC5)
# T4 sequence (Q9ULC5 whole entry): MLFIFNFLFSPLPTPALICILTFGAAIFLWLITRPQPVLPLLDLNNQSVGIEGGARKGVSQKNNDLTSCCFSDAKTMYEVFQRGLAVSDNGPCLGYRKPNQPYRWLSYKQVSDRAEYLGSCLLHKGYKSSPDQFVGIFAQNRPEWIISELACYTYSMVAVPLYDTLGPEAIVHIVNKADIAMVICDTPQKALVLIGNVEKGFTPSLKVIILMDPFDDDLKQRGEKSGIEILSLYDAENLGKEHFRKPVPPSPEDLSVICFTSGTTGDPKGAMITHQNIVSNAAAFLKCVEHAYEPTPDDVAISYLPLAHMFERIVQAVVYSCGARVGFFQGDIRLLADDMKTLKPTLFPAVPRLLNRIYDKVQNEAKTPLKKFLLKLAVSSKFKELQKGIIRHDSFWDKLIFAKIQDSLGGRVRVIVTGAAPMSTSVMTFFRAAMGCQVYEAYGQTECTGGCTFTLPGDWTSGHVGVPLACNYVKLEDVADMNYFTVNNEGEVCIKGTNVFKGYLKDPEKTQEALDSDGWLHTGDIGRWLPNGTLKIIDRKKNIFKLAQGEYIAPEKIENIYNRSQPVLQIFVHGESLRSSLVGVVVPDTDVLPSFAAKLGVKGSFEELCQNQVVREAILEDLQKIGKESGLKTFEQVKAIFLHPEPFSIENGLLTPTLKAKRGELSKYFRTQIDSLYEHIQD
# Also: in the data inactive means no Kd found up to 30 µM.
SMILES,Kd [1],Kd [2],Kd [3],Kd [4],Kd [5],Kd (TGF-beta receptor type-1),Kd [6]
Cc1cc(Nc2nc(N[C@@H](C)c3ncc(F)cn3)ncc2Cl)n[nH]1 [AZD-1480],> 30 µM (inactive),> 30 µM (inactive),> 30 µM (inactive),> 30 µM (inactive),> 30 µM (inactive),> 30 µM (inactive),
CCc1cc2c(cc1N1CCC(N3CCOCC3)CC1)C(C)(C)c1[nH]c3cc(C#N)ccc3c1C2=O [ALECTINIB],> 30 µM (inactive),> 30 µM (inactive),> 30 µM (inactive),> 30 µM (inactive),> 30 µM (inactive),> 30 µM (inactive),
CN(c1ncccc1CNc1nc(Nc2ccc3c(c2)CC(=O)N3)ncc1C(F)(F)F)S(C)(=O)=O [PF-00562271],> 30 µM (inactive),,,,> 30 µM (inactive),> 30 µM (inactive),> 30 µM (inactive)
COc1cc2c(Oc3ccc4[nH]c(C)cc4c3F)ncnc2cc1OCCCN1CCCC1 [CEDIRANIB],> 30 µM (inactive),,,,,,0.008 µM
Cn1c(=O)c(F)c(Nc2ccc(I)cc2F)c2c(=O)n(C[C@@H](O)CO)cnc21 [TAK-733],,> 30 µM (inactive),> 30 µM (inactive),> 30 µM (inactive),> 30 µM (inactive),> 30 µM (inactive),
O=C(NOC[C@H](O)CO)c1ccc(F)c(F)c1Nc1ccc(I)cc1F [MIRDAMETINIB],> 30 µM (inactive),> 30 µM (inactive),> 30 µM (inactive),> 30 µM (inactive),> 30 µM (inactive),> 30 µM (inactive),
CC1(C)CNc2cc(NC(=O)c3cccnc3NCc3ccncc3)ccc21 [MOTESANIB],> 30 µM (inactive),,,,,,> 30 µM (inactive)
NC[C@@](O)(c1ccc(Cl)cc1)c1ccc(-c2cn[nH]c2)cc1 [AT-13148],> 30 µM (inactive),,> 30 µM (inactive),> 30 µM (inactive),0.014 µM (active),> 30 µM (inactive),> 30 µM (inactive)
C=CCN(/C=C1/C(=O)O[C@H](COC)[C@@]2(C)C1=C(O)C(=O)C1=C2[C@H](OC(C)=O)C[C@]2(C)C(=O)CC[C@@H]12)CC=C [SONOLISIB],,> 30 µM (inactive),> 30 µM (inactive),> 30 µM (inactive),> 30 µM (inactive),> 30 µM (inactive),
COCCN1CCN(Cc2ccc(-c3n[nH]c4c3C(=O)c3c(NC(=O)NN5CCOCC5)cccc3-4)cc2)CC1 [RGB-286638],> 30 µM (inactive),,> 30 µM (inactive),> 30 µM (inactive),> 30 µM (inactive),> 30 µM (inactive),> 30 µM (inactive)
C=CC(=O)Nc1cccc(Nc2nc(Nc3ccc(N4CCN(C(C)=O)CC4)cc3OC)ncc2C(F)(F)F)c1 [ROCILETINIB],,> 30 µM (inactive),> 30 µM (inactive),> 30 µM (inactive),,> 30 µM (inactive),
Cc1ccc(C(=O)Nc2ccc(Oc3cc4cnn(C)c4cc3-c3cn[nH]c3)c(F)c2)c(=O)n1-c1ccc(F)cc1 [MERESTINIB],> 30 µM (inactive),> 30 µM (inactive),> 30 µM (inactive),> 30 µM (inactive),> 30 µM (inactive),> 30 µM (inactive),
O=C(O)c1ccc2c(c1)nc(Nc1cccc(Cl)c1)c1ccncc12 [SILMITASERTIB],> 30 µM (inactive),,> 30 µM (inactive),15.4 µM (active),> 30 µM (inactive),> 30 µM (inactive),
CN(C)C/C=C/C(=O)Nc1cc2c(Nc3ccc(F)c(Cl)c3)ncnc2cc1O[C@H]1CCOC1 [AFATINIB],> 30 µM (inactive),,,,,,> 30 µM (inactive)
Cn1cnc2c(F)c(Nc3ccc(Br)cc3Cl)c(C(=O)NOCCO)cc21 [SELUMETINIB],> 30 µM (inactive),,,,,,> 30 µM (inactive)
Cn1c(=O)n(-c2ccc(C(C)(C)C#N)cc2)c2c3cc(-c4cnc5ccccc5c4)ccc3ncc21 [DACTOLISIB],> 30 µM (inactive),,,,> 30 µM (inactive),> 30 µM (inactive),> 30 µM (inactive)
C=CC(=O)Nc1cc(Nc2nccc(-c3cn(C)c4ccccc34)n2)c(OC)cc1N(C)CCN(C)C [OSIMERTINIB],0.012 µM,> 30 µM (inactive),> 30 µM (inactive),> 30 µM (inactive),> 30 µM (inactive),> 30 µM (inactive),
COc1cc2c(N3CCN(C(=O)Nc4ccc(OC(C)C)cc4)CC3)ncnc2cc1OCCCN1CCCCC1 [TANDUTINIB],,,,,,,> 30 µM (inactive)
CCN(CCCOc1ccc2c(Nc3cc(CC(=O)Nc4cccc(F)c4)n[nH]3)ncnc2c1)CCOP(=O)(O)O [BARASERTIB],> 30 µM (inactive),,,,> 30 µM (inactive),> 30 µM (inactive),> 30 µM (inactive)
CCN1CCN(Cc2ccc(Nc3ncc(F)c(-c4cc(F)c5nc(C)n(C(C)C)c5c4)n3)nc2)CC1 [ABEMACICLIB],,,> 30 µM (inactive),> 30 µM (inactive),> 30 µM (inactive),> 30 µM (inactive),
C[C@@]1(C(=O)Nc2ccc(F)nc2)CCCN1c1nc(Nc2cc(C3CC3)n[nH]2)c2cccn2n1 [BMS-754807],> 30 µM (inactive),,,,,,
c1cc(OCCN2CCCCC2)cc(-c2n[nH]c3ccc(-c4nc[nH]n4)cc23)c1 [CC-401],> 30 µM (inactive),,> 30 µM (inactive),> 30 µM (inactive),> 30 µM (inactive),> 30 µM (inactive),> 30 µM (inactive)
O=c1[nH]c([C@@H]2CCCN2)nc2c1oc1ccc(Cl)cc12,,0.04 µM,> 30 µM (inactive),> 30 µM (inactive),> 30 µM (inactive),> 30 µM (inactive),
C[C@]1(O)C[C@@H](c2nc(-c3ccc4ccc(-c5ccccc5)nc4c3)c3c(N)nccn32)C1 [LINSITINIB],> 30 µM (inactive),,0.067 µM (active),,> 30 µM (inactive),> 30 µM (inactive),
